Measured values: ChEMBL document CHEMBL1129102, “Design, synthesis, and evaluation of fibrinogen inhibitors, -(p-amidinophenoxy) alkanoylaspartic acid derivatives” (Bioorg Med Chem Lett, 1996)

Each molecule was assayed against Integrin alpha-IIb/beta-3 (Homo sapiens, UniProt P05106+P08514) (assay: Inhibition of human platelet adhesion to fibrinogen).
Sequence of Integrin alpha-IIb/beta-3 (P05106 27-788 limits assumed): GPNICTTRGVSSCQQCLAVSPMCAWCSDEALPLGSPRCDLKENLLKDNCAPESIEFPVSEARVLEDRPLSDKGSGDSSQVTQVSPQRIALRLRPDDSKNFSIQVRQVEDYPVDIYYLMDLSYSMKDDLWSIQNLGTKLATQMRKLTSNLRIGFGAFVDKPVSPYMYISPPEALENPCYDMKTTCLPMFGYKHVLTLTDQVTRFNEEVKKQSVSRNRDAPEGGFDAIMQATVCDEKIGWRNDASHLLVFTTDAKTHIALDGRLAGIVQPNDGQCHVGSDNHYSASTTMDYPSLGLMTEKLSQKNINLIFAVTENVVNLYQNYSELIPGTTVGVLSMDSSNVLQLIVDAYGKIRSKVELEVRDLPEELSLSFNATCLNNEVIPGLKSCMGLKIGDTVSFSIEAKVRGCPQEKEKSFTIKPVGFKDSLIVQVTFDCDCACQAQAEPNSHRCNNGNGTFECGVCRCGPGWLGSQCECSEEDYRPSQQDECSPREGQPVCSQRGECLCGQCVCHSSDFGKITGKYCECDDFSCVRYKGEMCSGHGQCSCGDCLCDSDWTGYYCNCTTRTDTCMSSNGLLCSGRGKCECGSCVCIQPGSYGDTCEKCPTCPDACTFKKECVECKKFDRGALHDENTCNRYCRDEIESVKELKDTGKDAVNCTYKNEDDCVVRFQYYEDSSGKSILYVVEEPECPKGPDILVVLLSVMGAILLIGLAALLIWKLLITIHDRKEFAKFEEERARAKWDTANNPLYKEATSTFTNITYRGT
Sequence of Integrin alpha-IIb/beta-3 (P08514 32-887 limits assumed): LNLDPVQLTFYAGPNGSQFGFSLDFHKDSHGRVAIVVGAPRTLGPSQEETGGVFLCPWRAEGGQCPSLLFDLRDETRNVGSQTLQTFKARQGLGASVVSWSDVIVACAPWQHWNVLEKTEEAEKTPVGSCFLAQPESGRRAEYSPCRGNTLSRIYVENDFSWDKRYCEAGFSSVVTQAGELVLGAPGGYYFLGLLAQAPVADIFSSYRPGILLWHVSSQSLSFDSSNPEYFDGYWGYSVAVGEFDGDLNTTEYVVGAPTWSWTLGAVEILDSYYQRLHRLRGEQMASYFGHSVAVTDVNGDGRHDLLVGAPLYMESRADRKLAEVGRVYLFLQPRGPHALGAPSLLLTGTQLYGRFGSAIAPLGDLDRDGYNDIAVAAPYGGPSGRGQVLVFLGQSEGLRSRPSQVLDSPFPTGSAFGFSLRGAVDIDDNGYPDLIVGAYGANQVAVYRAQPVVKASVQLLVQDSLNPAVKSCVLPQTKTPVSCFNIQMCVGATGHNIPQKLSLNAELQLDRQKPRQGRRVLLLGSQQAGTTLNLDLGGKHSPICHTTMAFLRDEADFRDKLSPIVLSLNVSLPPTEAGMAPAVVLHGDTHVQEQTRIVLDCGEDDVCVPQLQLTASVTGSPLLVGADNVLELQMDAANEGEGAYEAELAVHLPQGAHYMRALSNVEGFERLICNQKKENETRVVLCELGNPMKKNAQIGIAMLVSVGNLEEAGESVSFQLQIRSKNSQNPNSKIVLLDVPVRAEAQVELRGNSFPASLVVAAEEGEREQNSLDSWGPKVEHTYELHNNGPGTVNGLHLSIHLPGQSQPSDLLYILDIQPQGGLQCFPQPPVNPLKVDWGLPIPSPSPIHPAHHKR
Sequence of Integrin alpha-IIb/beta-3 (P08514 891-1039 limits assumed): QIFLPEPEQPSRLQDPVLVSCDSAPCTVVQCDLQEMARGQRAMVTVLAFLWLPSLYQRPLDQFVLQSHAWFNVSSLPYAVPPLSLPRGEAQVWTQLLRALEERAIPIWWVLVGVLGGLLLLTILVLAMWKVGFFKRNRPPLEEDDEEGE

Row | IC50 [nM] | SMILES
1 | 270 | CN(C(=O)[C@H](CC(=O)O)NC(=O)CCCCOc1ccc(C(=N)N)cc1)[C@@H](Cc1ccc(O)cc1)C(=O)O
2 | 230 | CC(C)[C@H](NC(=O)[C@H](CC(=O)O)NC(=O)CCCCOc1ccc(C(=N)N)cc1)C(=O)O
3 | 640 | N=C(N)c1ccc(OCCCCC(=O)N[C@@H](CC(=O)O)C(=O)N[C@@H](Cc2ccc(O)cc2)C(=O)O)cc1
4 | 88 | CC(C)[C@H](NC(=O)[C@H](CC(=O)O)NC(=O)CCCOc1ccc(C(=N)N)cc1)C(=O)O
